# According to ChEMBL document CHEMBL1201862, “PubChem BioAssay data set” (2004):
# Calls of active or inactive are those of the source.
# Tests used:
# [1] = LGR2 antagonists, dose response, cell-based, HEK293, CRE-luciferase reporter, cherry pick, set 2 (AID 743343); type: functional;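 also: transfected cells were stimulated with diluted bursicon conditioned medium after compound addition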
# [2] = MC4R antagonists, dose response, counter-screen for LGR2 antagonist project, cell-based, plate reader, cherry pick (AID 743444); type: functional;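 also: transfected HEK 293 cells stimulated with alpha-MSH peptide; potency of inhibitors of the alpha-MSH evoked signal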
# [3] = cells; type: functional, cell-based
# [4] = target: T1, Nuclear receptor subfamily 0 group B member 1 (Homo sapiens, UniProt P51843); type: functional, cell-based;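 also: HEK293T cells transfected with SF-1 and DAX-1 plus StAR promoter luciferase reporter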
# T1 sequence (P51843 whole entry): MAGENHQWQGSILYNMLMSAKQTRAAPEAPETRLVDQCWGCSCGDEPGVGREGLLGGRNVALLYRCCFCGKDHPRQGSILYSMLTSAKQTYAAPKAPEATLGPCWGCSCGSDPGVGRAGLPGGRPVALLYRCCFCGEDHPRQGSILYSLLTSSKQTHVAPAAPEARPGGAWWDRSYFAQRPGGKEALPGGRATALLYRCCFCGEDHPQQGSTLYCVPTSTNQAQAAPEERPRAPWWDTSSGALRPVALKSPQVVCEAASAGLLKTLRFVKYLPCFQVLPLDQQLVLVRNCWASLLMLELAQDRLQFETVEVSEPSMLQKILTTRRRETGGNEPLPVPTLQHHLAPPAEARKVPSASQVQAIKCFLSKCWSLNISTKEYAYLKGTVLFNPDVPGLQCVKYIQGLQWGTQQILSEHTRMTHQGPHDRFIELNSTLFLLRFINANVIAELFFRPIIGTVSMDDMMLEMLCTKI
# [5] = Luminescence Cell-Based Dose Response HTS to Identify Inhibitors of 5'UTR Stem-Loop Driven Prion Protein mRNA Translation in H4 Neuroglioblastoma Cells. [Related pubchem assays: 1827 (Project Summary), 1813 (Primary HTS)]; type: functional
# [6] = system: INS1; test: beta cell apoptosis inhibitors, cytokine rescue, dose response, luminescence, retest (AID 449756); type: functional, cell-based; details: Rattus norvegicus;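 also: cell death triggered by IL-1 beta plus TNF-alpha plus IFN-gamma mixture; protective hits raise ATP signal compared with cytokine alone wells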
# [7] = cells; type: functional, cell-based; details: HEK-CNG
# [8] = cytotoxicity in HEK-293T cells, dose response, cytotoxicity control for TCR NF-kB inhibitor project, luminescence, T-cell screen hits (AID 489026); type: functional, cell-based;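 also: cells exposed to compound about 14 hours before the viability readout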
# [9] = target: Galanin receptor type 3 (Homo sapiens, UniProt O60755); test: Fluorescence-based cell-based primary high throughput dose response assay to identify antagonists of the Galanin Receptor 3 (GalR3).; type: functional
# [10] = target: Cytochrome P450 2D6 (Homo sapiens, UniProt P10635);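 also: CYP2D6 member of a cytochrome P450 panel assay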
# [11] = target: Cytochrome P450 3A4 (Homo sapiens, UniProt P08684);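 also: CYP3A4 tested as one member of a cytochrome P450 panel screen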
# [12] = HepG2 cell cytotoxicity, dose response, cytotoxicity control for non-replicating M. tuberculosis project (AID 489018); type: functional; details: Mycobacterium tuberculosis
# [13] = Vero E6 cell cytotoxicity, dose response, cytotoxicity control for non-replicating M. tuberculosis project, secondary assay (AID 492998); type: functional, VeroE6; details: Vero C1008
# [14] = HepG2 cell cytotoxicity, dose response, cytotoxicity control, ATP luminescence, cherry-pick, activator set 2 (AID 1053143); type: functional, cell-based
# [15] = THP-1 cell cytotoxicity, dose response, cytotoxicity control for non-replicating M. tuberculosis project (AID 489025); type: functional
# [16] = cells; type: functional
# [17] = Counterscreen for activators of the function of SWI/SNF related, matrix associated, actin dependent regulator of chromatin, subfamily a, member 2 (SMARCA2, BRM): Luminescence-based cell-based high throughput dose response assay to identify non-selective compounds using the VP16 reporter assay.; type: functional
# [18] = cytotoxicity toward NIH3T3 fibroblasts, dose response, counter-screen, cell-based, ATP luminescence, mouse fibroblasts (AID 2010); type: functional;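 also: cells exposed to compound for about 90 hours before reading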
# [19] = inhibitors of intracellular T. cruzi replication, confirmation, NIH3T3 host cells, beta-gal luminescence (AID 2044); type: functional, cell-based;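 also: intracellular parasites grown in NIH/3T3 mouse fibroblasts as host cells; luminescent beta-galactosidase reporter signal from transgenic T. cruzi replicating inside host cells; inhibitors lower the luminescence signal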
# [20] = target: SWI/SNF-related matrix-associated actin-dependent regulator of chromatin subfamily A member 2 (Homo sapiens, UniProt P51531); test: Luminescence-based cell-based high throughput dose response assay to identify activators of the function of SWI/SNF related, matrix associated, actin dependent regulator of chromatin, subfamily a, member 2 (SMARCA2, BRM).; type: functional
# [21] = target: Major prion protein (Homo sapiens, UniProt P04156); type: functional, cell-based
# [22] = cells
# [23] = HepG2 cell cytotoxicity, dose response, cytotoxicity control, plate reader, cherry-pick, antagonist series (AID 743416); type: functional, cell-based
# [24] = HEK293 cell cytotoxicity, dose response, cytotoxicity control, plate reader, cherry-picked samples (AID 743446); type: functional, cell-based
# [25] = control 3'UTR Renilla luciferase suppression, dose response, counter-screen for Shn3 inhibitor project, cell-based, Clone20-Shn3RL, cherry-picked (AID 624133); type: functional
# [26] = Shn3 3'UTR reporter inhibitors, dose response, cell-based, Clone20 osteoblasts, firefly luciferase, cherry-picked (AID 624132); type: functional;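 also: firefly luciferase luminescence from reporter carrying the Shn3 3'UTR in osteoblasts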
# [27] = HepG2 cell cytotoxicity, dose response, cytotoxicity control for Shn3 inhibitor project, CellTiter-Glo, cherry-picked (AID 624134); type: functional, cell-based
# [28] = target: T2, Oxysterols receptor LXR-beta (Homo sapiens, UniProt P55055); type: functional, cell-based;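 also: agonist activity at LXR measured by a cell-based luminescence readout across a dose range, run as a counterscreen for daf-12 agonists; HEK293 cells with Gal4-LXR fusion and GAL4-driven luciferase reporter; potency for activation of Gal4-LXR reporter so compounds are agonists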
# T2 sequence (P55055 whole entry): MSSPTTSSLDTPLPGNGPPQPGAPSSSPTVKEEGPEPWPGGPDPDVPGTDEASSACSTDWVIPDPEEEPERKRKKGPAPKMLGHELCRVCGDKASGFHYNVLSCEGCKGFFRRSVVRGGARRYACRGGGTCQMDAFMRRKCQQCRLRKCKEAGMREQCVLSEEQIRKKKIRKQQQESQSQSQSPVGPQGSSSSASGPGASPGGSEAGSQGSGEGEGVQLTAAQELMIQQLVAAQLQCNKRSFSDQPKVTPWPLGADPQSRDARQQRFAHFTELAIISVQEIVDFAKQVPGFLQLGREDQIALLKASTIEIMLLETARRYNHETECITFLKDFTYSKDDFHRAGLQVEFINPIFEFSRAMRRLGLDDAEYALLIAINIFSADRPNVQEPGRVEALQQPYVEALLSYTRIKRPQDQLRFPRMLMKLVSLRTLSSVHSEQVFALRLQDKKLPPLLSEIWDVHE
# [29] = target: T3, Protein skinhead-1 (Caenorhabditis elegans, UniProt P34707); type: functional
# T3 sequence (P34707 whole entry): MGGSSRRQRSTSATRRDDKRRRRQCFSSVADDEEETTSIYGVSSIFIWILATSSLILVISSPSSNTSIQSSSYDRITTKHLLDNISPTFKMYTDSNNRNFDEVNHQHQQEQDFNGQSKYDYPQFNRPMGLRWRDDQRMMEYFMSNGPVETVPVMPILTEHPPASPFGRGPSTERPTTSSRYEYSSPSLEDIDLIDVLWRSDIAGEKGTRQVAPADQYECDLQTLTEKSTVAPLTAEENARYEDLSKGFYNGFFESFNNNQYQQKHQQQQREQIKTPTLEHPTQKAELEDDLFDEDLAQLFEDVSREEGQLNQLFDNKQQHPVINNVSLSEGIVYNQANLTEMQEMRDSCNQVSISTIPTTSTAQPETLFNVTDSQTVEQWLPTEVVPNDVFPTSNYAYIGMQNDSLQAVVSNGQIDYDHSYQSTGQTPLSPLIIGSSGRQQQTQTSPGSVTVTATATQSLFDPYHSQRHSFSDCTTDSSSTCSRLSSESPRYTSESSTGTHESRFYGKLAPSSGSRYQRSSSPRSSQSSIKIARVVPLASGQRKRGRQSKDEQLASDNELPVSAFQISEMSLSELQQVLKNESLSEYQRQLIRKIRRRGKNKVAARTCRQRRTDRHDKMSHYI
# [30] = StAR promoter reporter inhibition counter-screen, dose response, counter-screen for LRH-1 inverse agonist project, cell-based, luminescence, luciferase reporter (AID 651969); type: functional
# [31] = target: Nuclear receptor subfamily 5 group A member 2 (Homo sapiens, UniProt O00482); type: functional, cell-based;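 also: HEK293T cells transfected with LRH-1 and a StAR promoter luciferase reporter; potency for inhibitors that lower LRH-1 driven reporter light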
# [32] = target: Steroidogenic factor 1 (Homo sapiens, UniProt Q13285); test: Counterscreen for inverse agonists of the liver receptor homolog-1 (LRH-1; NR5A2): Luminescence-based cell-based high throughput dose response assay to identify inverse agonists of the Steroidogenic Factor 1 Nuclear Receptor (SF1; NR5A1).; type: functional
# [33] = target: fMet-Leu-Phe receptor (Homo sapiens, UniProt P21462); test: FPR ligands, dose response (AID 519); type: functional
# [34] = HEK293T cytotoxicity, dose response, cytotoxicity control for miR-122 modulator project, cell-based, inhibitor set, cherry-pick, set 2 (AID 720697); type: functional
# [35] = miR-122 activators in hepatoma reporter cells, dose response, cell-based, Huh7 psiCHECK-miR122, Renilla luciferase, cherry-picked (AID 651956); type: functional;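 also: huh7 hepatoma cells stably carrying a psiCHECK-2 miR-122 sensor plasmid; renilla luciferase signal reporting endogenous miR-122 activity after 48 h compound exposure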
# [36] = target: Paired box protein Pax-8 (Homo sapiens, UniProt Q06710); test: inhibitors of PAX8-driven TPO luciferase reporter, dose response, RMG-I cells, cherry-pick (AID 687027); type: functional, cell-based;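 also: luciferase reporter driven by Pax8 target thyroperoxidase promoter measured by SteadyGlo luminescence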
# [37] = non-specific cell cytotoxicity, dose response, cytotoxicity control for PAX8 inhibitor project, plate reader, dry powder samples (AID 743021); type: functional, cell-based
# [38] = inhibitors of firefly luciferase expression or activity, dose response, H4 neuroglioma cells, luminescence (AID 1990); type: functional, cell-based
# [39] = HeLa 2N DNA content increase, dose response, cell-based, IC50 (AID 1117349); type: functional
# [40] = inhibitors of SNCA 5'UTR-driven reporter translation, confirmation, H4 neuroglioma cells, luminescence (AID 1988); type: functional, cell-based
# [41] = luciferase reporter signal reduction – luminescence, H4-C neuroglioblastoma cells, dose response (AID 2458); type: functional, cell-based;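 also: H4 neuroglioblastoma cells stably carrying a luciferase reporter gene fusion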
# [42] = cells; type: functional, cell-based; remark: listed apart in the source
# [43] = inhibitors of SNCA 5'UTR-driven translation, confirmation, luminescence, H4 neuroglioblastoma cells, dose confirmation (AID 2454); type: functional, cell-based;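 also: H4 neuroglioblastoma cells carrying an alpha-synuclein 5'UTR luciferase reporter; potency for inhibition of the luciferase signal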
# [44] = HeLa 4N DNA content increase, dose response, cell-based, IC50 (AID 1117351); type: functional
smiles,measurement,setting,value
O=C(c1cc(-c2ccc(Cl)cc2Cl)on1)N1CCOCC1,AC50,[1],7.17 µM (active)
same,AC50,[2],7.28 µM (active)
same,IC50,[3],> 67.5 µM (inactive)
same,IC50,[4],> 67.5 µM (inactive)
same,EC50,[5],> 120 µM (not active)
CCc1c(C)nc2ncnn2c1NCCc1ccc(OC)cc1,AC50,[6],5.39 µM (active)
same,EC50,[7],> 29.9 µM (inactive)
same,IC50,[8],> 80 µM (inactive)
same,IC50,[9],3.2 µM (active)
same,AC50,[10],12.6 µM (inconclusive)
same,AC50,[11],25.1 µM (inconclusive)
Cc1cc(NCc2ccccn2)n2ncc(-c3ccccc3)c2n1,CC50,[12],4.11 µM (active)
same,CC50,[13],11.8 µM (active)
same,AC50,[14],26 µM (active)
same,CC50,[15],6.66 µM (active)
same,IC50,[16],1.4 µM (active)
Cc1cc(NCCN2CCOCC2)c2ccc3ccccc3c2n1,EC50,[17],> 91.2 µM (inactive)
same,EC50,[18],> 60 µM (not active)
same,EC50,[19],0.949 µM (active)
same,EC50,[20],25.3 µM (inactive)
N=C(N)NS(=O)(=O)c1ccc(NC(=S)NC(=O)c2sc3ccccc3c2Cl)cc1,IC50,[21],5.54 µM (active)
same,IC50,[22],> 138 µM (inactive)
c1ccc(-n2nnnc2Sc2ncnc3sc4c(c23)CCCC4)cc1,AC50,[1],5.02 µM (active)
same,AC50,[2],5.73 µM (active)
same,AC50,[23],> 52 µM (inactive)
same,AC50,[24],42.3 µM (active)
Cn1nc(C(C)(C)C)cc1C(=O)NCc1ccc2c(c1)OCO2,AC50,[6],3.31 µM (active)
same,AC50,[25],1.02 µM (active)
same,EC50,[7],> 29.9 µM (inactive)
same,AC50,[26],1.17 µM (active)
same,IC50,[9],1.83 µM (active)
same,AC50,[27],2.31 µM (active)
CCc1cc2c(=O)c(-c3ccc4c(c3)OCO4)coc2c(CN(C)C)c1O,IC50,[21],2.07 µM (active)
same,IC50,[22],> 138 µM (inactive)
S=C(c1ccc(-c2ccc(Cl)cc2)o1)N1CCCCC1,EC50,[28],> 67.5 µM (inactive)
Clc1ccc(Nc2ccc3ccccc3n2)cc1,IC50,[29],> 100 µM (inactive)
same,EC50,[28],> 67.5 µM (inactive)
CC1=CC(O)C(O)C2(C)C1CC1OC(=O)CC3C(C)C(O)C(=O)C2C13CO (stereo not drawn),IC50,[30],17.7 µM (inactive)
same,IC50,[31],6.91 µM (active)
same,IC50,[32],4.96 µM (active)
CCOc1ccc(C2C(C(=O)c3cccs3)=C(O)C(=O)N2CCCn2ccnc2)cc1 (stereo not drawn),Ki,[33],57.1 µM (inactive)
COc1ccccc1CNc1nc(NCC2CC2)nc2ccsc12,AC50,[34],6.06 µM (active)
same,AC50,[25],6.69 µM (active)
same,AC50,[26],4.16 µM (active)
same,AC50,[35],29.6 µM (active)
same,AC50,[27],39.9 µM (active)
CC(C)C#Cc1ccc2c(c1)O[C@H](CN(C)C(=O)c1ccncc1)[C@@H](C)CN([C@@H](C)CO)S2(=O)=O,AC50,[34],0.461 µM (active)
same,AC50,[35],11.6 µM (active)
Cc1ccc(S(=O)(=O)N(C)C[C@H]2Oc3ccc(NS(=O)(=O)c4ccc(F)cc4)cc3CC(=O)N([C@H](C)CO)C[C@H]2C)cc1,AC50,[36],21.5 µM (active)
same,AC50,[37],52.8 µM (active)
O=C(Cc1ccc(-c2ccccc2)cc1)Nc1ccccn1 [DIFENPIRAMIDE],EC50,[17],> 91.2 µM (inactive)
same,EC50,[20],> 91.2 µM (inactive)
COc1cc([C@@H]2c3cc4c(cc3[C@H](O)[C@H]3COC(=O)[C@H]23)OCO4)cc(OC)c1OC [PODOFILOX],EC50,[38],< 0.1 µM (active)
same,IC50,[39],0.0089 µM (active)
same,AC50,[36],< 0.26 µM (active)
same,IC50,[3],> 67.5 µM (inactive)
same,EC50,[40],< 0.1 µM (active)
same,EC50,[41],0.015 µM (active)
same,IC50,[8],> 80 µM (inactive)
same,EC50,[42],0.014 µM (active)
same,EC50,[43],0.008 µM (active)
same,IC50,[4],2.15 µM (active)
same,IC50,[44],0.0077 µM (active)
